From article PMC11449324, “Functional comparison of human and murine equilibrative nucleobase transporter 1” (PLOS ONE, 2024)
Read-outs that look alike come from different tables or passages of the source.

Tests used:
mENBT1 = molecular target: T1, mENBT1 (Mus musculus, UniProt A2AVZ9); assay: Inhibition of ENBT1-mediated substrate uptake in HEK293-mslc43a3 cells; type: cell-based
T1 construct: Oligonucleotides corresponding to the coding region of SLC43A3 (NM_001278201) or slc43a3 (NM_021398); expressed in transfected cells; HEK293-mslc43a3
T1 sequence (A2AVZ9 1-502): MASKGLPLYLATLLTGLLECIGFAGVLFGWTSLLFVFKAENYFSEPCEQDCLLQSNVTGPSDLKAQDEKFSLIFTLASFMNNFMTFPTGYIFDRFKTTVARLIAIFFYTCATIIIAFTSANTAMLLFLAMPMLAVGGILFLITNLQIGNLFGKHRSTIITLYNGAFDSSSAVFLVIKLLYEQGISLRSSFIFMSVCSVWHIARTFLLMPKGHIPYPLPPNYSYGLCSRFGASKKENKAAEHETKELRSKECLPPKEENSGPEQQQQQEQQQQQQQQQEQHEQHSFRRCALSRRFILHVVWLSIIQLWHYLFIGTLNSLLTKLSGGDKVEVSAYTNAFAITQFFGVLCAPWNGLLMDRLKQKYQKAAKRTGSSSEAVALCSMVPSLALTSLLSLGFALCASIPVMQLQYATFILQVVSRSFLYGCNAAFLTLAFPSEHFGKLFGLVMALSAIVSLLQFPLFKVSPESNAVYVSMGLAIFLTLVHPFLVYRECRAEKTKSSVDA
Procedure: (§1) Harvested cells were suspended in nominally sodium-free N-methyl-D-glucamine (NMG) buffer (140 mM NMG, 5 mM KCl, 4.2 mM KHCO3, 0.36 mM K2HPO4, 0.44 mM KH2PO4, 0.5 mM MgCl2, 1.3 mM CaCl2, 10 mM HEPES, pH 7.4), to minimize potential contribution of sodium-dependent concentrative nucleoside transporter-mediated uptake. Additionally, cells were incubated for 15 minutes at room temperature with 10 μM dipyridamole (DY), an equilibrative nucleoside transporter (ENT) inhibitor, to block equilibrative nucleoside transporter–mediated uptake. The substrate uptake assay was initiated by adding 250 μL cell suspension to 250 μL [^3H] labeled substrate, layered over 21:4 silicone:mineral oil (200 μL) in 1.5 mL microcentrifuge tubes (conducted at room temperature). The uptake reaction was terminated after 2 seconds by centrifugation of the cells through the oil layer at ~10,000 g. This is the minimum incubation time achievable with this oil-stop technique, and it was found in previous studies that these short incubation times were necessary to assess the kinetics of this transporter. The aqueous layer was removed via vacuum-powered aspirator, and the tube was washed with 1 mL of NMG buffer prior to removal of the oil layer. The resulting cell pellet was digested in 250 μL 1 M NaOH overnight (~16 hours), with 220 μL aliquots of digested cells assessed for radioactive content using standard liquid scintillation counting techniques in a Beckman Coulter LS6500 scintillation system (Brea, CA).
To assess the ability of compounds to inhibit substrate uptake, cells were incubated with the inhibitor for 15 minutes prior to initiating the uptake assay, or exposed to the cells simultaneously with the radiolabelled substrate. […] After subtraction of the non-mediated uptake component, the degree of inhibition was calculated as the ratio of cellular accumulation in the presence of test compound to that measured in its absence (X 100).
Each assay was repeated 5–6 times using independent cell isolations and reagent preparations. In addition, within each assay, there were two or three technical replicates (using the same reagents and cells) that were averaged to obtain a single data point. Nonlinear curves were fitted to data (presented as mean ± SD from the 5–6 independent experiments), and statistical analyses were done using GraphPad Prism 10 software. In all cases, if the P-value determined from a statistical test was less than 0.05, the null hypothesis was rejected and the alternative hypothesis was favoured. Significant differences between groups were assessed using either Student’s t-test or ordinary one- or two-way analysis of variance (ANOVA) followed by a post hoc Šidák multiple comparison test, as appropriate. For influx and cell viability analyses, significant differences in Km and EC50 value, respectively, between the hENBT1 and mENBT1 data sets, were determined by the extra sum-of-squares F test. For inhibition analyses, the Ki values were determined from the IC50 values using the specified substrate concentration [S], based on the Cheng-Prusoff equation Ki = IC50/(1 + [S]/Km) and experimentally obtained Km values.

[1] = molecular target: T2, endogenous ENBT1 expressed in L1210 cells (Mus musculus, UniProt A2AVZ9); assay: [3H]6-MP uptake in L1210 cells; type: cell-based, murine; conditions: 30 μM [3H]6-MP
T2 construct: MOLT-4 cells express the SLC43A3 transcript and L1210 cells express the slc43a3 transcript; host or cells: L1210
T2 sequence (A2AVZ9 1-502): T1 sequence (A2AVZ9 1-502)
Procedure: as §1, with “The uptake reaction was terminated after 2 seconds by centrifugation of the cells through the oil layer at ~10,000 g.” left out, “The aqueous layer was removed via vacuum-powered aspirator, and the tube was washed with 1 mL of NMG buffer prior to removal of the oil layer.” left out
In transfected-HEK293 cell lines, total uptake was defined as uptake of radiolabeled substrate in cells overexpressing recombinant hENBT1 or mENBT1. […] ENBT1-mediated uptake was calculated as total uptake minus the non-mediated uptake.
Cell water volume (μL) was estimated by incubating cells with ^3H2O for 3 minutes, centrifuging the cells through the oil layer at ~10,000 g, assessing 100 μL of the supernatant for radioactive content, and then processing as described above. Total cellular water volume was determined from the ratio of the decays per minute of the cell pellet, to the decays per minute of the supernatant, allowing for inter-experimental normalization via calculation of picomoles of substrate accumulated per microliter of cell-associated water.

| Structure (SMILES) | Ki (mENBT1) | inhibition of ENBT1-mediated [14C]6-MP uptake (mENBT1; at 1 mM adenine, HEK293-mslc43a3) | effect on uptake of [3H]6-MP ([1]; 5 mM adenine) | Ki (mENBT1; HEK293-mslc43a3, 30 μM [3H]adenine, 2 seconds, Cheng-Prusoff, read-out: Ki for inhibition of ENBT1-mediated [3H]adenine uptake) | inhibition of ENBT1-mediated [3H]adenine uptake (mENBT1; at highest concentration of 6-MP tested (1 mM), HEK293-mslc43a3) | Ki relative to its Km for the transporter (mENBT1; mENBT1) | k value of time-dependent uptake [1] | uptake plateau [1] |
| --- | --- | --- | --- | --- | --- | --- | --- | --- |
| Nc1ncnc2[nH]cnc12 [adenine, Adenine] | 0.051 ± 0.013 mM | near complete inhibition | significantly inhibited |  |  |  |  |  |
| Sc1ncnc2nc[nH]c12 [6-MP, 6-Mercaptopurine] |  |  |  | 7.4 ± 1.3 mM | complete inhibition was not obtained | 30 fold | 0.22 ± 0.05 s⁻¹ | roughly 30 pmol/μL |
